Columns and labels:
Format in all cases: in vivo
Details in all cases: rating 0-100 (0 no damage, 100 complete death), 14 days after application
[1] = test system: redroot pigweed (Amaranthus retroflexus, AMARE); assay: Pre-emerge herbicidal activity, greenhouse screen, AMARE
From the text: (§1) A standard greenhouse herbicide activity screening system was used to evaluate the herbicidal efficacy and crop safety of these test compounds. Seven broadleaf weed species including redroot pigweed (Amaranthus retroflexus, AMARE), velvetleaf (Abutilon theophrasti, ABUTH), sicklepod (Cassia obtusifolia, CASOB), ivyleaf morningglory (Ipomoea hederacea, IPOHE), lambsquarters (Chenopodium album, CHEAL), common ragweed (Ambrosia artemisiifolia L., AMBEL), and cocklebur (Xanthium strumarium, XANST) were used as test species. Four grass weed species including green foxtail (Setaria viridis, SETVI), barnyardgrass (Echinochloa crus-galli, ECHCG), johnsongrass (Sorghum halepense, SORHA), and large crabgrass (Digitaria sanguinalis, DIGSA) were also used. In addition, three crop species, field corn (Zea mays L., var. Dekalb 527, CORN), soybean (Glycine max L., var. Pella 86, SOY), and upland rice (Oryza sp., var. Tebonnet, RICE) were included.
(§2) All plants were grown in 10 cm square plastic pots which were filled with a sandy loam soil mix. For pre-emerge tests, seeds were planted one day prior to application of the test compounds. For post-emerge tests, seeds were planted 8-21 days prior to the test to allow emergence and good foliage development prior to application of the test substances. At the time of the post-emerge application, plants of all species were usually at the 2-3 leaf stage of development.
(§3) All test compounds were dissolved in acetone and applied to the test units in a volume of 187 l/ha. Test materials were applied at rates ranging from 15 g ai/ha to 1000 g ai/ha using a track sprayer equipped with a TJ8001 E even flow flat fan spray nozzle. Plants were arranged on a shelf so that the top of the canopy (post-emerge) or top of the soil surface (pre-emerge) was 40-45 cm below the nozzle. Pressurized air was used to force the test solution through the nozzle as it was mechanically advanced over the top of all test plants/pots. This application simulates a typical commercial field herbicide application.
(§4) In the post-emerge test, a commercial non-ionic surfactant was also included (0.25% v/v) to enhance wetting of the leaf surfaces of target plants. Immediately after application, test units of the pre-emerge applications were watered at the soil surface to incorporate the test materials.
(§5) At 14 days after application of the test materials, phytotoxicity ratings were recorded. A rating scale of 0-100 was used as previously described in Research Methods in Weed Science, 2nd edition, B. Truelove, Ed., Southern Weed Science Society, Auburn University, Auburn, Ala., 1977. Briefly, “0” corresponds to no damage and “100” corresponds to complete death of all plants in the test unit. This scale was used both to determine efficacy against weed species and damage to crop species. Herbicide activity data for various compounds of this invention, which are shown by compound No. in Tables 1-7, are shown in Tables 8 and 9.

[2] = test system: velvetleaf (Abutilon theophrasti, ABUTH); assay: Pre-emerge herbicidal activity, greenhouse screen, ABUTH
From the text: as §1, §2, §3, §4, §5

[3] = test system: sicklepod (Cassia obtusifolia, CASOB); assay: Pre-emerge herbicidal activity, greenhouse screen, CASOB
From the text: as §1, §2, §3, §4, §5

[4] = test system: ivyleaf morningglory (Ipomoea hederacea, IPOHE); assay: Pre-emerge herbicidal activity, greenhouse screen, IPOHE
From the text: as §1, §2, §3, §4, §5

[5] = test system: lambsquarters (Chenopodium album, CHEAL); assay: Pre-emerge herbicidal activity, greenhouse screen, CHEAL
From the text: as §1, §2, §3, §4, §5

[6] = test system: common ragweed (Ambrosia artemisiifolia L., AMBEL); assay: Pre-emerge herbicidal activity, greenhouse screen, AMBEL
From the text: as §1, §2, §3, §4, §5

[7] = test system: green foxtail (Setaria viridis, SETVI); assay: Pre-emerge herbicidal activity, greenhouse screen, SETVI
From the text: as §1, §2, §3, §4, §5

[8] = test system: barnyardgrass (Echinochloa crus-galli, ECHCG); assay: Pre-emerge herbicidal activity, greenhouse screen, ECHCG
From the text: as §1, §2, §3, §4, §5

[9] = test system: johnsongrass (Sorghum halepense, SORHA); assay: Pre-emerge herbicidal activity, greenhouse screen, SORHA
From the text: as §1, §2, §3, §4, §5

[10] = test system: large crabgrass (Digitaria sanguinalis, DIGSA); assay: Pre-emerge herbicidal activity, greenhouse screen, DIGSA
From the text: as §1, §2, §3, §4, §5

[11] = test system: field corn (Zea mays L., var. Dekalb 527, CORN); assay: Pre-emerge crop damage, greenhouse screen, CORN
From the text: as §1, §2, §3, §4, §5

[12] = test system: soybean (Glycine max L., var. Pella 86, SOY); assay: Pre-emerge crop damage, greenhouse screen, SOY
From the text: as §1, §2, §3, §4, §5

[13] = test system: upland rice (Oryza sp., var. Tebonnet, RICE); assay: Pre-emerge crop damage, greenhouse screen, RICE
From the text: as §1, §2, §3, §4, §5

[14] = test system: redroot pigweed (Amaranthus retroflexus, AMARE); assay: Post-emerge herbicidal activity, greenhouse screen, AMARE
From the text: as §1, §2, §3, §4, §5

[15] = test system: velvetleaf (Abutilon theophrasti, ABUTH); assay: Post-emerge herbicidal activity, greenhouse screen, ABUTH
From the text: as §1, §2, §3, §4, §5

[16] = test system: sicklepod (Cassia obtusifolia, CASOB); assay: Post-emerge herbicidal activity, greenhouse screen, CASOB
From the text: as §1, §2, §3, §4, §5

[17] = test system: ivyleaf morningglory (Ipomoea hederacea, IPOHE); assay: Post-emerge herbicidal activity, greenhouse screen, IPOHE
From the text: as §1, §2, §3, §4, §5

[18] = test system: lambsquarters (Chenopodium album, CHEAL); assay: Post-emerge herbicidal activity, greenhouse screen, CHEAL
From the text: as §1, §2, §3, §4, §5

[19] = test system: common ragweed (Ambrosia artemisiifolia L., AMBEL); assay: Post-emerge herbicidal activity, greenhouse screen, AMBEL
From the text: as §1, §2, §3, §4, §5

[20] = test system: green foxtail (Setaria viridis, SETVI); assay: Post-emerge herbicidal activity, greenhouse screen, SETVI
From the text: as §1, §2, §3, §4, §5

[21] = test system: barnyardgrass (Echinochloa crus-galli, ECHCG); assay: Post-emerge herbicidal activity, greenhouse screen, ECHCG
From the text: as §1, §2, §3, §4, §5

[22] = test system: johnsongrass (Sorghum halepense, SORHA); assay: Post-emerge herbicidal activity, greenhouse screen, SORHA
From the text: as §1, §2, §3, §4, §5

[23] = test system: large crabgrass (Digitaria sanguinalis, DIGSA); assay: Post-emerge herbicidal activity, greenhouse screen, DIGSA
From the text: as §1, §2, §3, §4, §5

[24] = test system: field corn (Zea mays L., var. Dekalb 527, CORN); assay: Post-emerge crop damage, greenhouse screen, CORN
From the text: as §1, §2, §3, §4, §5

[25] = test system: soybean (Glycine max L., var. Pella 86, SOY); assay: Post-emerge crop damage, greenhouse screen, SOY
From the text: as §1, §2, §3, §4, §5

[26] = test system: upland rice (Oryza sp., var. Tebonnet, RICE); assay: Post-emerge crop damage, greenhouse screen, RICE
From the text: as §1, §2, §3, §4, §5

Cn1c(C(F)(F)F)cc(=O)n(-c2c(F)ccc3nc(C(C)(C)C)oc23)c1=S [Compound 1-5]
85: Pre-emerge Herbicidal Activity CORN (crop damage) ([11]; 63 g ai/ha) | Post-emerge Herbicidal Activity SETVI ([20]; 250 g ai/ha)
30: Post-emerge Herbicidal Activity CORN (crop damage) ([24]; 250 g ai/ha)
15: Post-emerge Herbicidal Activity CORN (crop damage) ([24]; 63 g ai/ha)
50: Post-emerge Herbicidal Activity SOY (crop damage) ([25]; 63 g ai/ha)
60: Post-emerge Herbicidal Activity CASOB ([16]; 63 g ai/ha) | Post-emerge Herbicidal Activity DIGSA ([23]; 63 g ai/ha)
65: Post-emerge Herbicidal Activity RICE (crop damage) ([26]; 63 g ai/ha)
90: Pre-emerge Herbicidal Activity CASOB ([3]; 63 g ai/ha) | Post-emerge Herbicidal Activity CASOB ([16]; 250 g ai/ha) | Post-emerge Herbicidal Activity AMBEL ([19]; 63 g ai/ha)
80: Pre-emerge Herbicidal Activity RICE (crop damage) ([13]; 250 g ai/ha) | Post-emerge Herbicidal Activity SETVI ([20]; 63 g ai/ha)
55: Pre-emerge Herbicidal Activity RICE (crop damage) ([13]; 63 g ai/ha) | Post-emerge Herbicidal Activity SORHA ([22]; 63 g ai/ha)
99: Pre-emerge Herbicidal Activity AMBEL ([6]; 63 g ai/ha) | Pre-emerge Herbicidal Activity SORHA ([9]; 63 g ai/ha) | Pre-emerge Herbicidal Activity SOY (crop damage) ([12]; 250 g ai/ha) | Post-emerge Herbicidal Activity AMARE ([14]; 63 g ai/ha)
0: Pre-emerge Herbicidal Activity SOY (crop damage) ([12]; 63 g ai/ha)
75: Post-emerge Herbicidal Activity SORHA ([22]; 250 g ai/ha) | Post-emerge Herbicidal Activity DIGSA ([23]; 250 g ai/ha) | Post-emerge Herbicidal Activity SOY (crop damage) ([25]; 250 g ai/ha)
95: Post-emerge Herbicidal Activity CHEAL ([18]; 63 g ai/ha)
70: Post-emerge Herbicidal Activity RICE (crop damage) ([26]; 250 g ai/ha)
100: Pre-emerge Herbicidal Activity AMARE ([1]; 63 g ai/ha) | Pre-emerge Herbicidal Activity AMARE ([1]; 250 g ai/ha) | Pre-emerge Herbicidal Activity ABUTH ([2]; 63 g ai/ha) | Pre-emerge Herbicidal Activity ABUTH ([2]; 250 g ai/ha) | Pre-emerge Herbicidal Activity CASOB ([3]; 250 g ai/ha) | Pre-emerge Herbicidal Activity IPOHE ([4]; 63 g ai/ha) | Pre-emerge Herbicidal Activity IPOHE ([4]; 250 g ai/ha) | Pre-emerge Herbicidal Activity CHEAL ([5]; 63 g ai/ha) | Pre-emerge Herbicidal Activity CHEAL ([5]; 250 g ai/ha) | Pre-emerge Herbicidal Activity AMBEL ([6]; 250 g ai/ha) | Pre-emerge Herbicidal Activity SETVI ([7]; 63 g ai/ha) | Pre-emerge Herbicidal Activity SETVI ([7]; 250 g ai/ha) | Pre-emerge Herbicidal Activity ECHCG ([8]; 63 g ai/ha) | Pre-emerge Herbicidal Activity ECHCG ([8]; 250 g ai/ha) | Pre-emerge Herbicidal Activity SORHA ([9]; 250 g ai/ha) | Pre-emerge Herbicidal Activity DIGSA ([10]; 63 g ai/ha) | Pre-emerge Herbicidal Activity DIGSA ([10]; 250 g ai/ha) | Pre-emerge Herbicidal Activity CORN (crop damage) ([11]; 250 g ai/ha) | Post-emerge Herbicidal Activity AMARE ([14]; 250 g ai/ha) | Post-emerge Herbicidal Activity ABUTH ([15]; 63 g ai/ha) | Post-emerge Herbicidal Activity ABUTH ([15]; 250 g ai/ha) | Post-emerge Herbicidal Activity IPOHE ([17]; 63 g ai/ha) | Post-emerge Herbicidal Activity IPOHE ([17]; 250 g ai/ha) | Post-emerge Herbicidal Activity CHEAL ([18]; 250 g ai/ha) | Post-emerge Herbicidal Activity AMBEL ([19]; 250 g ai/ha) | Post-emerge Herbicidal Activity ECHCG ([21]; 63 g ai/ha) | Post-emerge Herbicidal Activity ECHCG ([21]; 250 g ai/ha)
